Results taken from US11667621B2, “Antiestrogen compounds” (STEVENS INSTITUTE OF TECHNOLOGY, priority 2018, dated 2023).
Residue numbers refer to the chain shown, from its start.

Legend:
Assay in all cases: Luciferase assay, overexpressed ER (3×-ERE-TATA-Luciferase reporter)
Format in all cases: cell-based
HA-ERα wild type = biological target: T1, HA-ERα wild type (Homo sapiens, UniProt P03372); details: compound concentration 1 μM, 24 hours; read-out: Overexpressed ER (% Inhibition) WT
T1 construct: HA; expressed in transfected cells
T1 sequence (P03372 1-595): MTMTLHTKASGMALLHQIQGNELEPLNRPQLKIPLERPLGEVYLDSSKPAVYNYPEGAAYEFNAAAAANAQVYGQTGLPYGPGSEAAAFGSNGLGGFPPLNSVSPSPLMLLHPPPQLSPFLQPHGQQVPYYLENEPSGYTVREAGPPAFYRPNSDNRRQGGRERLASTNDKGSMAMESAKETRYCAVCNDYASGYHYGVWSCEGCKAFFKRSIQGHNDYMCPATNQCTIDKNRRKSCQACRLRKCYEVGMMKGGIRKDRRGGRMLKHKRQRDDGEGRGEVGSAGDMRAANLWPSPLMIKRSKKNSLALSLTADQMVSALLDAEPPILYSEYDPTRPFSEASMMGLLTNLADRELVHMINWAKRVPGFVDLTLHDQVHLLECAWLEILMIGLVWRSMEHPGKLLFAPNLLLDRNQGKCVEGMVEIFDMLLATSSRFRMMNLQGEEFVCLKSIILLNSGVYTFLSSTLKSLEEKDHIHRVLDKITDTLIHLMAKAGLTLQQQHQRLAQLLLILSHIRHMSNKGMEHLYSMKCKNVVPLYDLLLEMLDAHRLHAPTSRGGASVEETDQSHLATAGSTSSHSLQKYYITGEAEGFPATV
Procedure: (§1) Luciferase assays were performed to determine the efficacy of the example compounds at inhibiting ER or its mutants' ability to activate transcription of genes.
(§2) Cells were plated at a density of 0.15×10^6 per well of 24 well plates one day prior to transfection. Cells were transfected with 125 ng (per well) of HA-ERα wild type or mutants, 315 ng (per well) of 3×-ERE-TATA-Luciferase reporter and 50 ng (per well) of pRL-TK Renilla Luciferase plasmid, using Xtremegene (Roche). The cells were treated with the various compounds or Fulvestrant at the indicated doses a day after transfection for 24 hours and luciferase activities were determined using the Dual-Luciferase® Reporter Assay System (Promega) according to manufacturer's instructions. Luciferase bioluminescence measurements were performed with the Veritas™ Microplate Luminometer (Promega). All experiments were conducted in triplicate and the Firefly luciferase activity was normalized with the Renilla luciferase activity of each sample.

HA-ERα D538G = biological target: T2, HA-ERα D538G (Homo sapiens, UniProt P03372, D538G); details: compound concentration 1 μM, 24 hours
T2 construct: HA; expressed in transfected cells
T2 sequence (P03372 1-595 D538G): T1 sequence (P03372 1-595) with D538G
Procedure: as §1, §2

HA-ERα L536R = biological target: T3, HA-ERα L536R (Homo sapiens, UniProt P03372, L536R); details: compound concentration 1 μM, 24 hours
T3 construct: HA; expressed in transfected cells
T3 sequence (P03372 1-595 L536R): T1 sequence (P03372 1-595) with L536R
Procedure: as §1, §2

HA-ERα Y537S = biological target: T4, HA-ERα Y537S (Homo sapiens, UniProt P03372, Y537S); details: compound concentration 1 μM, 24 hours
T4 construct: HA; expressed in transfected cells
T4 sequence (P03372 1-595 Y537S): T1 sequence (P03372 1-595) with Y537S
Procedure: as §1, §2

| SMILES | inhibition at 1 µM (HA-ERα wild type) [%] | inhibition at 1 µM (HA-ERα D538G) [%] | inhibition at 1 µM (HA-ERα L536R) [%] | inhibition at 1 µM (HA-ERα Y537S) [%] |
| --- | --- | --- | --- | --- |
| CC(C)(C)OC(=O)N[C@@H](Cc1c[nH]c2ccccc12)C(=O)NCCCCOc1ccc(C(=C2C3CC4CC(C3)CC2C4)c2ccc(O)cc2)cc1 [Example 1, (S)-tert-Butyl (1-((4-(4-(adamantan-2-ylidene(4-hydroxyphenyl)methyl)-phenoxy)butyl)amino)-3-(1H-indol-3-yl)-1-oxopropan-2-yl)carbamate] | 71 | 84 | 70 | 62 |
| O=C(NCCCCOc1ccc(C(=C2C3CC4CC(C3)CC2C4)c2ccc(O)cc2)cc1)C12CC3CC(CC(C3)C1)C2 [Example 6, N-(4-(4-(Adamantan-2-ylidene(4-hydroxyphenyl)methyl)phenoxy)-butyl)adamantane-1-carboxamide] | 84 | 87 | 70 | 62 |
| CC12CC3CC(C)(C1)CC(C(=O)NCCCCOc1ccc(C(=C4C5CC6CC(C5)CC4C6)c4ccc(O)cc4)cc1)(C3)C2 [Example 7, N-(4-(4-(Adamantan-2-ylidene(4-hydroxyphenyl)methyl)phenoxy)butyl)-3,5-dimethyladamantane-1-carboxamide] | 83 | 83 | 77 | 46 |
| O=C(NCCCCOc1ccc(C(=C2C3CC4CC(C3)CC2C4)c2ccc(O)cc2)cc1)C12CC3CC(CC1C3)C2 [Example 8, N-(4-(4-((Adamantan-2-ylidene)(4-hydroxyphenyl)methyl)phenoxy)butyl)-hexahydro-2,5-methanopentalene-3a(1H)-carboxamide] | 83 | 89 | 84 | 31 |
| O=C(NCCCCOc1ccc(C(=C2C3CC4CC(C3)CC2C4)c2ccc(O)cc2)cc1)[C@H]1C[C@@H]2C=C[C@H]1C2 [Example 9, (1R, 2S, 4R)—N-(4-(4-(Adamantan-2-ylidene(4-hydroxyphenyl)methyl)phenoxy)-butyl)bicyclo[2.2.1]hept-5-ene-2-carboxamide] | 88 | 92 | 89 | 33 |
| O=C(NCCCCOc1ccc(C(=C2C3CC4CC(C3)CC2C4)c2ccc(O)cc2)cc1)C1CCC1 [Example 10, N-(4-(4-(Adamantan-2-ylidene(4-hydroxyphenyl)methyl)phenoxy)butyl)-cyclobutanecarboxamide] | 84 | 89 | 78 | 11 |
| O=C(NCCCCOc1ccc(C(=C2C3CC4CC(C3)CC2C4)c2ccc(O)cc2)cc1)C1CCCCC1 [Example 11, N-(4-(4-(Adamantan-2-ylidene(4-hydroxyphenyl)methyl)phenoxy)butyl)-cyclohexanecarboxamide] | 89 | 91 | 79 | 86 |
| O=C(NCCCCOc1ccc(C(=C2C3CC4CC(C3)CC2C4)c2ccc(O)cc2)cc1)C1CCCCCC1 [Example 12, N-(4-(4-(Adamantan-2-ylidene(4-hydroxyphenyl)methyl)phenoxy)butyl)-cycloheptanecarboxamide] | 90 | 92 | 87 | 58 |
| O=C(NCCCCOc1ccc(C(=C2C3CC4CC(C3)CC2C4)c2ccc(O)cc2)cc1)C1CCC(F)(F)CC1 [Example 13, N-(4-(4-(Adamantan-2-ylidene(4-hydroxyphenyl)methyl)phenoxy)butyl)-4,4-difluorocyclohexanecarboxamide] | 90 | 92 | 90 | 46 |
| O=C(NCCCCOc1ccc(C(=C2C3CC4CC(C3)CC2C4)c2ccc(O)cc2)cc1)[C@H]1CC[C@H](C(F)(F)F)CC1 [Example 14, (trans)-N-(4-(4-(Adamantan-2-ylidene(4-hydroxyphenyl)methyl)phenoxy)-butyl)-4-(trifluoromethyl)cyclohexanecarboxamide] | 81 | 88 | 82 | 26 |
